Assay results from a melting point compilation (Tetko et al.; mined from patent text by program, amines drawn as free bases though some values may be those of a salt).

SMILES | melting point [°C]
O=C(O)c1cc2c(-c3ccccc3)n[nH]c2s1 | > 260
CC(C)(O)CCCCCc1cccc(C=Cc2ccc(CO)c(CO)c2)c1 | 93 to 95
O=c1[nH]c(NCCCOc2cccc(CN3CCCCC3)c2)ncc1[N+](=O)[O-] | 161 to 164
CON(C)C(=O)Nc1cccc(OC(C)C(N)=S)c1 (stereo not given) | 95 to 96
CC1(C)COC(=O)[C@@H]1Oc1ccc(C#N)c(C(F)(F)F)c1 | 89.9 to 90.7
CCC1(c2cccc(O)c2)CCCCN(C)C1 (stereo not given) | 128 to 133
Cn1c2ccccc2c2cc(C(=O)N3CCOCC3)sc21 | 125 to 127
Cc1oc(-c2ccccc2)nc1CN(C)Cc1ccc(C[C@@H](C(=O)O)n2cccc2)cc1 | 133 to 135
COC(=O)c1cccc2nc(N3CCCCC3)n(Cc3ccc(-c4ccccc4C#N)cc3)c12 | 119 to 121
O=C(O)COc1ccc2cc(-c3oc4ccccc4c3C(=O)c3ccccc3)ccc2c1 | 178 to 181
CCOC(=O)c1cnn2ccc3c(c12)CCO3 | 138 to 139
CC1(C)CC(N(CCO)c2c([O-])[c+](N(CCO)C3CC(C)(C)NC(C)(C)C3)[c+]2[O-])CC(C)(C)N1 | 309 to 311
Cc1cn(C)c(C(=O)O)c1-c1ccccc1[N+](=O)[O-] | 205
COc1cc(COc2nn(-c3ccccc3)cc2CC2=NCCO2)ccc1OCc1nc(-c2ccco2)oc1C | 95 to 96
CC(C)(c1ccc(C(=O)Nc2cn3cc(Cl)ccc3n2)cc1)c1nnn[nH]1 | 266 to 267
CC(C)(C)c1nnc(S)n(N)c1=O | 209 to 212
Cc1cc(Cl)ccc1OCc1nn(C)c(=O)o1 | 108 to 110
CC(C)(C)OC(=O)NC(C)(C)c1ccc(C(=O)O)cc1 | 205 to 208
CS(=O)(=O)c1ccc(-c2c(-c3ccccc3)[nH]c3ccccc23)cc1 | 239 to 241
CCc1nn(CCO)c(CC)c1Oc1cc(C#N)cc(S(C)(=O)=O)c1 | 133
Oc1cccc2c(Cl)ccnc12 | 143 to 145
O=C(Nc1cccc2c(OC(=O)c3c(Cl)cccc3Cl)ccnc12)c1c(Cl)cccc1Cl | 248
CCOc1ccccc1OCC(O)CN (single isomer, unassigned; (-)) | 87
N=C(N)NN=C1CCc2ccc(N)cc21 | > 280
CC(C)(Cc1ccccc1)C(O)CCN1C(=O)NC(=O)C1CCCCCCC(=O)O (stereo not given) | 115

SMILES | melting point [°C]
CCc1nc2c(C)cc(C)nc2n1Cc1ccc(C2(C(=O)O)CCOCC2)s1 | 214 to 215
CCOC(=O)C(=CNc1nnc(C)s1)C(=O)c1cc(F)c(Cl)nc1Cl | 142 to 152
CSc1cc(CO)cc(S(N)(=O)=O)c1Cc1ccccc1 | 190 to 192
Cn1cc(C(=O)NCc2ccc(Cl)cc2)c(=O)c2cc(CN3CCOCC3)cc(C#CCO)c21 | 180 to 183
CCOC(=O)C(CC#Cc1ccccc1)(NC(C)=O)C(=O)OCC | 94 to 96.5
CC(C)(C)Sc1c(CC(C)(C)C(=O)O)n(Cc2ccc(Cl)cc2)c2ccc(OCc3ccncc3)cc12 | 238 to 240
O=S(=O)(ON=C1CCCc2ccccc21)c1ccc(O)cc1 | 141 to 142
O=c1c2c(OCC3CS3)cc(OCC3CS3)cc2oc2ccc3ccccc3c12 (stereo not given) | 225 to 226
COc1cc2cc(CO)c(CO)c(-c3ccnc(-n4c(=O)cc(C(=O)O)c5ccccc54)c3)c2cc1OC | > 250
CCOC(=O)C(=CN(CC)c1cccs1)C(=O)OCC | 41 to 42
OC1(c2ccccc2)CCN(CCC2COc3ccccc3O2)CC1 (stereo not given) | 142
OC1CCNc2nc(Br)ccc21 (stereo not given) | 130 to 131
CCC(C)NC1=NS(=O)(=O)c2cc(C(F)(F)F)ccc2N1 (stereo not given) | 234 to 236
COc1ccc(NC2=NN(c3ccccc3)CC2)cc1 | 153 to 154
Cc1nccc2c1[nH]c1cc(OCc3ccccc3)ccc12 | 212
O=C1C[C@]2(CCCC[C@H]2Cc2ccccc2)S(=O)(=O)CCN1Cc1cccnc1 | 220 to 221
O=C(Oc1ccc(F)cc1Cl)Oc1ccc(F)cc1Cl | 91 to 92
CC(C)Cc1nn(C)c(=O)c2cc(Cc3cccnc3)sc12 | 118 to 119
O=C(O)COc1c(Br)cc(-c2c3ccccc3c(Br)c3oc4ccccc4c23)cc1Br | 250 to 252
C=CC(C)(CCC=C(C)C)OCC(=O)c1cc(C(C)C)c(O)c(C(C)C)c1 (stereo not given) | 71 to 72
CC(=O)NCc1ccc2ccn(C3CCN(CCc4ccccc4F)CC3)c2c1 | 101 to 102
CCN(CC)C(=O)c1ccc(CCCCOCCCCCCN(Cc2ccccc2)CC(O)c2ccc(O)c3[nH]c(=O)ccc23)cc1 (stereo not given) | 101 to 103
O=C(NC(Cc1c[nH]c2ccccc12)C(=O)OCc1ccc(Cl)cc1)c1ccccc1 (stereo not given) | 119
O=S1(=O)CCCSC(S)=N1 | 134
CCCCc1nc(SCC)c2ccccc2c1Cc1ccc(C(=O)O)cc1 | 150
